Assay results from US20250025490A1, “INDUCTION OF TRAINED IMMUNITY FOR THE TREATMENT OF HYPERPROLIFERATIVE DISORDERS” (priority 2021, published 2025).

Experiments:
LLC-GFP cells = assay: In vivo Mdivi-1 treatment during WGP training, phenotyping and LLC-GFP challenge; parameters: species or system C57Bl/6 mice
Description: In vivo Mdivi-1 treatment. 6 weeks old C57B1/6 female mice were i.p. injected with Mdivi-1 (50 mg/kg) or DMSO along with suitable carriers (5% Tween-80 and 40% PEG300) starting day 0 for 6 days. Mdivi-1/DMSO treated mice were also treated with PBS or WGP at day 0. Mice were euthanized at day 7 to harvest the BM and lungs for phenotyping using flow cytometry. In tumor challenging experiment, Mdivi-1/DMSO-treated PBS vs WGP trained mice were i.v. injected with 0.4×10^6 LLC-GFP cells on day 9. Mice were euthanized on day 27. Lungs were then analyzed for tumor burden using flow cytometry.
CyTOF mass cytometry staining, data acquisition, and analysis. Lung single cell suspensions were prepared as described earlier and ex vivo stimulated with PMA/Ionomycin for 4 h at 37° C., 5% CO2. The cells were then harvested, washed with PBS and transferred to sterile-capped culture tubes. Cells were then stained for viability using 5 μM cisplatin (Fluidigm) in serum-free RPMI 1640 for 5 min at RT and washed with complete RPMI 1640. Cells were stained with the surface markers antibodies for 30 min at RT and washed twice with Maxpar cell staining buffer (Fluidigm) followed by fixation with 1 ml of 1X Maxpar Fix I buffer for 30 min at RT. Upon fixation, cells were washed twice with 2 ml of 1X Maxpar Perm-S buffer for 5 min at 800 g, stained for the cytoplasmic/secreted antibodies and incubated for 30 min at RT. Following incubation, cells were washed twice with 1 ml of 1X Maxpar Perm-S buffer for 5 min at 800 g. The cells were then suspended in 1 ml of 1X Maxpar nuclear antigen staining buffer (Fluidigm) and incubated for 30 min at RT, washed twice with Maxpar nuclear antigen staining permeability buffer (Fluidigm) at 800 g for 5 min each. Cells were stained for nuclear antigens and incubated at RT for 30 min, washed twice with Maxpar nuclear antigen staining permeability buffer and fixed with 1.6% formaldehyde for 10 min at RT. The fixed cells were then centrifuged to remove the formaldehyde at 800 g for 5 min and incubated with 125 nM of intercalator iridium (Fluidigm) overnight at 4° C. After overnight incubation, the cells were washed twice with cell staining buffer, pelleted and kept on ice until acquisition using CyTOF. Prior to acquisition, cells were suspended in a 1:9 solution of Cell acquisition solution: EQ 4 element calibration beads (Fluidigm) and acquired using a Helios CyTOF system. Upon acquisition of the samples, the .FCS files were normalized to .fcs files using the CyTOF software for analysis. The data acquired by CyTOF were then analyzed using FlowJo10 and the FlowSOM softwares.

LLC-GFP tumor cells = assay: BMDM training and adoptive transfer, LLC-GFP challenge; format: in vivo, mice; details: BMDM trained in presence of Mdivi-1
Description: BMDMs were trained in the presence of Mdivi-1 or DMSO. BMDMs (1×10^6) were then adoptively transferred intravenously to WT mice twice 2 days apart. Two days later recipient mice were challenged with LLC-GFP tumor cells. Mice were euthanized at day 21 post tumor challenge to analyze the tumor burden and T cell phenotype in the lungs.
To examine whether ex vivo beta-glucan trained macrophages could be used for adoptive cell therapy, bone marrow-derived macrophages (BMDM) were used for a proof-of-concept study. To this end, BMDM were trained with WGP beta-glucan for 7 days and then adoptively transferred into naïve mice. Recipient mice were then challenged with LLC-GFP tagged lung cancer cells. Mice were euthanized at day 21 (FIG. 15A).

COc1cc(-n2c(=S)[nH]c3ccccc3c2=O)c(Cl)cc1Cl [Mdivi-1]
effect on WGP-mediated accumulation of myeloid cells in the lungs (LLC-GFP cells; Mdivi-1 50 mg/kg i.p. daily): did not affect WGP-mediated accumulation of myeloid cells in the lungs | effect on WGP-mediated myelopoiesis in the BM (LLC-GFP cells; Mdivi-1 50 mg/kg i.p. daily, day 7): does not inhibit WGP-mediated myelopoiesis in the BM | lung IM trained phenotype (TNF-α) in WGP trained mice (LLC-GFP cells; Mdivi-1 treated): completely inhibited | tumor burdens in the lungs (LLC-GFP cells; WGP trained + Mdivi-1 vs untrained control): no difference in the tumor burdens between WGP trained mice treated with Mdivi-1 and untrained control mice | F4/80+CD11b+ lung MAMs and PD-L1+/CD206+ lung macrophages, CyTOF (LLC-GFP cells; mouse, in vivo): this effect was abolished when mice were treated with Mdivi-1 | effect on WGP-trained BMDM-mediated effect (LLC-GFP tumor cells): completely abrogated WGP-trained BDMD-mediated effect
